Reference: the OPERA property sets (Mansouri et al. 2018)
Converted amounts (≈) assume the structure as drawn.

settings: not given

| Structure (SMILES) | logP | log10 OH rate constant (cm³/molecule/s) |
| --- | --- | --- |
| N#CCCCCC#N | -0.32 | – |
| COc1ncnc2c1ncn2C1OC(COC(=O)C(C)(C)C)C(O)C1OC(=O)C(C)(C)C (centres undefined) | 3.4 | – |
| O=c1cc(CO)occ1O | -0.64 | – |
| CN1CCN(c2c(F)cc3c(=O)c(C(=O)O)cn(CCF)c3c2F)CC1 | 0.24 | – |
| OCCCNc1ccccc1 | 0.57 | – |
| CCCCCCN1CC(C(=O)O)CC1=O (centres undefined) | 1.6 | – |
| CC=O | -0.34 | – |
| NC(=O)NCCCn1nc(-c2ccccc2)ccc1=O | 0.69 | – |
| CC1=C(C)C(=O)C=CC1=O | 1.23 | – |
| CCCCn1ccc(=O)c(O)c1 | 0.72 | – |
| Cc1c(CNc2ccc(Cl)cc2)cnc2nc(N)nc(N)c12 | 2.03 | – |
| Clc1ccc(Cl)c(NC2=NCCN2)c1Cl | 2.46 | – |
| O=C1CC2C(=O)NCC2CN1 (centres undefined) | -2.11 | – |
| c1ccc2c(c1)ccc1cc3ccc4ccccc4c3nc12 | 6.45 | – |
| CC(CCC(=O)O)C1CCC2C3C(O)C(O)C4CC(O)CCC4(C)C3CCC12C (centres undefined) | 2.8 | – |
| CCC(C)O (centres undefined) | – | -11 |
| CC(C)(C)NCC(O)c1cc(O)cc(O)c1 (centres undefined) | 0.9 | – |
| N#CCCN(N)c1nc2cc(Cl)ccc2o1 | 1.72 | – |
| O=C1c2cc([N+](=O)[O-])ccc2-c2ccc([N+](=O)[O-])cc21 | 2.84 | – |
| CCCOC(=O)NCCCN(C)C | 1.12 | – |
| O=C(NCc1ccc(O)cc1)C(=O)c1c[nH]c2ccc([N+](=O)[O-])cc12 | 2.67 | – |
| Cc1cc(C)c(C#[N+][O-])c(C)c1 | 3.21 | – |
| CCc1c(O)c(=O)ccn1C | -0.2 | – |
| CCCOC(=O)c1cc(=O)[nH]c(=O)[nH]1 | 1.1 | – |
| CN1C(=O)CC[C@H]1c1cccnc1 | 0.07 | – |

same assay, conditions: 20 °C

| Structure (SMILES) | solubility |
| --- | --- |
| Nc1ccc(Cl)c(Cl)c1 | 0.568 mM (≈ 92 µg/mL) |
| C=CC(=O)NCO | 6460 mM (≈ 653000 µg/mL) |
| Clc1cccc2c1Oc1c(Cl)c(Cl)c(Cl)c(Cl)c1O2 | 3.37e-07 mM (≈ 0.00012 µg/mL) |
| N#CCCCCC#N | 740 mM (≈ 80000 µg/mL) |

same assay, conditions: 23 °C

| Structure (SMILES) | solubility |
| --- | --- |
| CCOP(=S)(Oc1ccc([N+](=O)[O-])cc1)c1ccccc1 (centres undefined) | 0.00962 mM (≈ 3.11 µg/mL) |

same assay, conditions: 23.0 °C

| Structure (SMILES) | log10 OH rate constant (cm³/molecule/s) |
| --- | --- |
| C=CC(C)(O)CCC=C(C)C (centres undefined) | -9.8 |
| CCOC(=O)C(C)O (centres undefined) | -11.4 |
| CCC(C)(O)CC(C)C (centres undefined) | -10.9 |

same assay, conditions: 24.0 °C

| Structure (SMILES) | log10 OH rate constant (cm³/molecule/s) |
| --- | --- |
| Clc1cc(Cl)cc(-c2ccccc2)c1 | -11.4 |

same assay, conditions: 25 °C

| Structure (SMILES) | solubility |
| --- | --- |
| CC(O)c1ccccc1 (centres undefined) | 43.8 mM (≈ 5350 µg/mL) |
| O=NN(c1ccccc1)c1ccccc1 | 0.177 mM (≈ 35 µg/mL) |
| COC(=O)c1ccccc1C(=O)OC | 20.6 mM (≈ 4000 µg/mL) |
| OCc1cccc2ccccc12 | 18 mM (≈ 2850 µg/mL) |
| O=C(O)Cc1ccc(O)cc1 | 399 mM (≈ 60700 µg/mL) |
| Nc1ccc(-c2ccc(N)c(Cl)c2)cc1Cl | 0.0122 mM (≈ 3.1 µg/mL) |
| NNc1ccccc1 | 1170 mM (≈ 127000 µg/mL) |
| C=C(C)C1CC=C(C)CC1 (centres undefined) | 0.0777 mM (≈ 10.6 µg/mL) |
| CNC1(c2ccccc2Cl)CCCCC1=O.Cl (centres undefined) | 729 mM |
| OCC#CCO | 4340 mM (≈ 374000 µg/mL) |
| c1ccc2cnncc2c1 | 384 mM (≈ 50000 µg/mL) |
| O=C(O)C(Br)(Br)Br | 674 mM (≈ 200000 µg/mL) |
| O=C(O)c1ccc(C(=O)O)c(C(=O)O)c1 | 99.9 mM (≈ 21000 µg/mL) |
| COc1ccccc1OCC(O)CO (centres undefined) | 252 mM (≈ 50000 µg/mL) |
| CC(C)(C)c1cccc(C(C)(C)C)c1O | 0.0121 mM (≈ 2.5 µg/mL) |
| CCC(Cl)CC | 2.34 mM (≈ 249 µg/mL) |

| Structure (SMILES) | solubility |
| --- | --- |
| C=C(C)C(=O)OCC(C)C | 9.14 mM (≈ 1300 µg/mL) |
| N#CCC#N | 2010 mM (≈ 133000 µg/mL) |
| CN/C(=N\C#N)NCCSCc1nc[nH]c1C | 41 mM (≈ 10300 µg/mL) |
| Nc1ccccc1Cl | 64 mM (≈ 8160 µg/mL) |
| C#CCBr | 125 mM (≈ 14900 µg/mL) |
| c1ccc2c(c1)-c1cccc3cccc-2c13 | 0.00114 mM (≈ 0.231 µg/mL) |
| CCCCC(C)CCC (centres undefined) | 0.000897 mM (≈ 0.115 µg/mL) |
| Brc1ccc(Br)c(-c2cc(Br)c(Br)cc2Br)c1 | 1.88e-07 mM (≈ 0.000103 µg/mL) |
| CCCC(C)Cl (centres undefined) | 3.2 mM (≈ 341 µg/mL) |
| ClCC(Cl)CCl | 11.9 mM (≈ 1750 µg/mL) |
| CCF | 44.9 mM (≈ 2160 µg/mL) |
| CC(C)NC(C)C | 1090 mM (≈ 110000 µg/mL) |
| O=C(O)CCC1CCCC1 | 17 mM (≈ 2420 µg/mL) |
| CCOC(=O)COc1cc(Cl)c(Cl)cc1Cl | 0.0141 mM (≈ 4.01 µg/mL) |
| COC | 7660 mM (≈ 353000 µg/mL) |

same assay, conditions: 25.0 °C

| Structure (SMILES) | log10 OH rate constant (cm³/molecule/s) |
| --- | --- |
| FC(F)C(F)F | -14.2 |
| COC(F)(F)C(F)(F)F | -13.9 |
| C=CC(C)(C)O | -10.2 |
| O=CC(Cl)Cl | -11.6 |
| FC(Cl)C(F)(F)Cl (centres undefined) | -13.9 |
| CCCCBr | -11.6 |
| CC(C)CC(=O)CC(C)C | -10.6 |
| c1ccc2c(c1)-c1cccc3cccc-2c13 | -10.3 |
| CCC(C)(C)OC | -11.3 |
| CC(=O)CC1C(CC=O)C1(C)C (centres undefined) | -10.3 |
| FCC(F)(F)C(F)F | -14 |
| FC(F)(F)CBr | -13.7 |
| CC(C)OCCO | -10.7 |
| O=CC(Cl)(Cl)Cl | -11.8 |
| O=CC(F)F | -11.8 |

same assay, conditions: 27.0 °C

| Structure (SMILES) | log10 OH rate constant (cm³/molecule/s) |
| --- | --- |
| CCC(=O)N(C)C | -10.7 |
| CCc1ccco1 | -9.97 |
| O=Cc1ccoc1 | -10.3 |

same assay, conditions: 28 °C

| Structure (SMILES) | solubility |
| --- | --- |
| O=C(O)Cc1c(Cl)ccc(Cl)c1Cl | 0.835 mM (≈ 200 µg/mL) |
